In patent US10533034B2, “Human iNKT cell activation using glycolipids” (ACADEMIA SINICA, priority 2014, dated 2020):

Legend:
[1] = tested on: Murine DN3A4-1.2 Vα14 iNKT hybridoma cells; experiment: mCD1d vs. hCD1d swapping assay, murine iNKT cells; assay type: cell-based, mouse; conditions: presented by mCD1d or hCD1d; 1, 0.1, 0.01 μg/ml
Procedure: (§1) (4A) Murine DN3A4-1.2 Vα14+ iNKT hybridoma cells or (4B) C1-expanded Vα24^+ iNKT cells were pulsed with the indicated glycolipid presented by either mCD1d (A20-CD1d cells) or hCD1d (HeLa-CD1d cells) at 1, 0.1, and 0.01 μg/ml. After 18 hr, the supernatants were harvested to measure IL-2 secretion by an ELISA assay (4A) or using Beadlyte® Human Cytokine kit and Luminex® 200™ reading system (4B). Assays were performed in triplicates. 8-5 was the abbreviation of 7DW8-5.
Murine DN3A4-1.2 Vα14 iNKT hybridoma cells or C1-expanded Vα24^+ iNKT cells were pulsed with the indicated glycolipid antigen presented either by mCD1d (A20-CD1d cells) or hCD1d (HeLa-CD1d cells) at 1, 0.1, and 0.01 μg/ml. After 18 hr, the supernatants were harvested for the measurement of cytokine secretion(s). IL-2 released from Vα14^+ iNKT cells was determined by ELISA assay. IFN-γ, IL-4 and IL-2 secreted from Vα24^+ iNKT cells were detected using Beadlyte® Human Cytokine kit (Millipore, N.Y., USA) and Luminex® 200™ reading system.
To explain the species-specific responses, we examined the effects of swapping human vs. mouse CD1d molecules against human vs. murine iNKT cells on the stimulatory activities of GSLs with different glycosyl groups. […]

B6 WT mice splenocytes = experiment: FACS analyses of WT mouse immune cells after glycolipid stimulation; assay type: in vivo; conditions: 1 μg/mouse; 3 days
Procedure: B6 WT mice treated with the indicated glycolipid (1 μg/mouse) or vehicle (1% DMSO in PBS) were sacrificed at 72 hr post-injection and their splenocytes were subjected to FACS analysis. (8A) The total splenocytes, (8B) total CD11Chi cells, (8C) CD11Chi/CD80+ cells, (8D) CD11Chi/CD86+ cells, (8E) CD4^+ T cells and (8F) CD8^+ T cells.
B6 WT or Jα18 KO mice treated with specific glycolipid (1 μg/mouse) or vehicle (1% DMSO in PBS) were sacrificed at 72 hr post-injection and their spleens were harvested. After pressing spleens through 70 um strainer and lysis of erythrocytes, the nucleated cells were resuspended in PBS buffer containing azide (0.05%) and stained with antibodies recognizing the indicated cell surface antigens for 30 min at 4° C. After washing, the splenocytes were subjected to FACS analysis. The antibodies against CD3, CD4, CD8α, CD11c, CD80, and CD86 were obtained from BD Bioscience-Pharmingen.
Next, we analyzed the expansion/activation of immune cells in WT mice 3 days after glycolipid stimulation. The numbers of total T cells, CD4^+ T and CD8^+ T cells were higher in mice treated by GSLs with αGal head than those treated by GSLs with αGlc (FIGS. 2C, 8E and 8F). This was in line with the observation that more cytokines/chemokines were induced by GSLs with αGal than GSLs with αGlc in mice (FIGS. 2A, 2B and 7). […] As compared to 7DW8-5-Glc, C1-Glc not only expanded ˜1.3 fold more splenocytes and DCs (FIGS. 8A and 8B) but also activated ˜3.5 fold more CD80^+ DCs as well as ˜3 fold more CD86^+ DCs (FIGS. 8C and 8D). The increased expansion/activation of DCs may contribute to the stronger immunogenicity triggered by C1-Glc and C34-Glc as compared to 7DW8-5-Glc in vivo.

[2] = tested on: C1-expanded Vα24+ iNKT cells; experiment: mCD1d vs. hCD1d swapping assay, human iNKT cells; assay type: cell-based; conditions: presented by mCD1d or hCD1d; 1, 0.1, 0.01 μg/ml
Procedure: as §1
C1-expanded Vα24^+ iNKT cells were pulsed with the indicated glycolipid antigen presented by either mCD1d (A20-CD1d cells) or hCD1d (HeLa-CD1d cells) at 1, 0.1, and 0.01 μg/ml. After 18 hr, the supernatants were harvested for the measurement of IFN-γ (12A) and IL-4 (12B) secretions. (12C) The ratio of IFN-γ over IL-4 was calculated at different concentrations of glycolipids. […]
Murine DN3A4-1.2 Vα14 iNKT hybridoma cells or C1-expanded Vα24^+ iNKT cells were pulsed with the indicated glycolipid antigen presented either by mCD1d (A20-CD1d cells) or hCD1d (HeLa-CD1d cells) at 1, 0.1, and 0.01 μg/ml. […] IL-2 released from Vα14^+ iNKT cells was determined by ELISA assay. IFN-γ, IL-4 and IL-2 secreted from Vα24^+ iNKT cells were detected using Beadlyte® Human Cytokine kit (Millipore, N.Y., USA) and Luminex® 200™ reading system. […]

[3] = tested on: human naïve Vα24+ iNKT cells; experiment: Expansion of human iNKT cells; assay type: cell-based; conditions: 100 ng/ml; counted on day 9
Procedure: Human naïve Vα24^+ iNKT cells were cultured with autologous immature CD14^+ DCs pulsed with the indicated glycolipid at 100 ng/ml or DMSO on day 2 for 18 h. On day 3, the suspension cells were transferred to a new dish, cultured in the presence of 50 U/ml IL-2 (R & D Systems), and replenished with fresh medium every 3 days. The percentage of Vα24^+/Vβ11^+ cells was determined by flow cytometry on day 9. The total cell number after expansion was calculated with the Guava ViaCount reagent (Millipore, USA) and detected by the Guava system with CytoSoft™ software containing the ViaCount module (Millipore, USA).
As described above, glycolipid analogs with αGal were stronger immune modulators than those with αGlc in mice, especially for the comparison between 7DW8-5 and 7DW8-5-Glc. To investigate if similar trends also applied to human iNKT cells, Vα24^+ iNKT cells isolated from the peripheral blood were incubated with immature DCs pulsed with the indicated glycolipid at 100 ng/ml on day 2. After antigen removal on day 3, human iNKT cells were cultured in the presence of IL-2. The number of expanded iNKT cells was counted using the Guava ViaCount reagent on day 9.

B6 wild type mice = conditions: previously reported; cited from earlier work

CCCCCCCCCCCCCC[C@@H](O)[C@@H](O)[C@H](CO[C@H]1O[C@H](CO)[C@@H](O)[C@H](O)[C@@H]1O)NC(=O)CCCCCCCCCCc1ccc(F)cc1 [Compound 7DW8-5-Man]
cytokine (IL-2) secretion from murine iNKT cells [1]: could not stimulate | expansion of immune cells in WT mice (B6 WT mice splenocytes): did not expand any types of immune cells | cytokine secretion (IL-2, IFN-γ, IL-4) from human iNKT cells [2]: could not stimulate

CC[C@@H](O)[C@@H](O)[C@H](CO[C@H]1OC(CO)[C@@H](O)C(O)C1O)NC(=O)Cc1ccc(F)cc1 (some centres unmarked) [Compound 7DW8-5-Glc]
expansion of human iNKT cells in vitro compared with 7DW8-5 [3]: significantly (p=0.0009) better

CCCCCCCCCCCCCC[C@@H](O)[C@@H](O)[C@H](CO[C@H]1O[C@H](CO)[C@H](O)[C@H](O)[C@H]1O)NC(=O)CCCCCCCCCCc1ccc(F)cc1 [Compound 7DW8-5, reference compound]
dose sufficient for immune stimulation (B6 wild type mice): 0.1 μg/mouse
